Experimental data: the supplement of paper PMC10307832

Legend:
Experiment in all cases: relative viability (nuclei count vs DMSO), 5 days (fraction); higher = more cells survive
Adavosertib + Alpelisib = compound: C=CCn1c(=O)c2cnc(Nc3ccc(N4CCN(C)CC4)cc3)nc2n1-c1cccc(C(C)(C)O)n1 [Adavosertib] + Cc1nc(NC(=O)N2CCC[C@H]2C(N)=O)sc1-c1ccnc(C(C)(C)C(F)(F)F)c1 [Alpelisib] (partner 2 µM)
Procedure, shortened: (§1)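 After 5 days of treatment, lung cancer cells in 1536-well plates were fixed and stained in a single step (final 0.05% Triton X-100, 1% formaldehyde, 1 ug/ml Hoechst) and their nuclei counted on 4× images. Treatment had been applied by pin tool the day after seeding as one drug alone or as a fixed anchor-drug dose with five library-drug doses (not always all listed) in √10 steps. Relative viability is the nuclei count of treated wells divided by that of vehicle wells, and values are medians of duplicate plates.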

Nelarabine + Linsitinib = compound: COc1nc(N)nc2c1ncn2[C@@H]1O[C@H](CO)[C@@H](O)[C@@H]1O [Nelarabine] + C[C@]1(O)C[C@@H](c2nc(-c3ccc4ccc(-c5ccccc5)nc4c3)c3c(N)nccn32)C1 [Linsitinib] (partner 1 µM)
Procedure, shortened: as §1

Nelarabine + Bortezomib = compound: COc1nc(N)nc2c1ncn2[C@@H]1O[C@H](CO)[C@@H](O)[C@@H]1O [Nelarabine] + CC(C)C[C@H](NC(=O)[C@H](Cc1ccccc1)NC(=O)c1cnccn1)B(O)O [Bortezomib] (partner 0.002 µM)
Procedure, shortened: as §1

Adavosertib + Olaparib = compound: C=CCn1c(=O)c2cnc(Nc3ccc(N4CCN(C)CC4)cc3)nc2n1-c1cccc(C(C)(C)O)n1 [Adavosertib] + O=C(c1cc(Cc2n[nH]c(=O)c3ccccc23)ccc1F)N1CCN(C(=O)C2CC2)CC1 [Olaparib] (partner 8 µM)
Procedure, shortened: as §1

Cell Line | relative viability (Adavosertib + Alpelisib; first compound 0.01 µM) | relative viability (Adavosertib + Alpelisib; first compound 0.03162 µM) | relative viability (Adavosertib + Alpelisib; first compound 0.1 µM) | relative viability (Adavosertib + Alpelisib; first compound 0.3162 µM) | relative viability (Nelarabine + Linsitinib; first compound 0.01 µM) | relative viability (Nelarabine + Linsitinib; first compound 0.03162 µM) | relative viability (Nelarabine + Linsitinib; first compound 0.1 µM) | relative viability (Nelarabine + Linsitinib; first compound 0.3162 µM) | relative viability (Nelarabine + Linsitinib; first compound 1 µM) | relative viability (Nelarabine + Bortezomib; first compound 0.01 µM) | relative viability (Nelarabine + Bortezomib; first compound 0.03162 µM) | relative viability (Nelarabine + Bortezomib; first compound 0.1 µM) | relative viability (Nelarabine + Bortezomib; first compound 0.3162 µM) | relative viability (Nelarabine + Bortezomib; first compound 1 µM) | relative viability (Adavosertib + Olaparib; first compound 0.01 µM) | relative viability (Adavosertib + Olaparib; first compound 0.03162 µM) | relative viability (Adavosertib + Olaparib; first compound 0.1 µM) | relative viability (Adavosertib + Olaparib; first compound 0.3162 µM)
NCI-H2087 | 1.11 | 1.07 | 1.2 | 0.944 | 1.06 | 0.897 | 1.06 | 1.05 | 0.914 | 1.08 | 0.821 | 1.03 | 1.03 | 0.793 | 0.663 | 0.595 | 0.606 | 0.604
HCC-827 | 1 | 1.05 | 0.995 | 0.838 | 0.922 | 0.826 | 0.877 | 0.772 | 0.666 | 1.09 | 0.956 | 1.02 | 0.914 | 0.783 | 0.627 | 0.707 | 0.709 | 0.655
ABC-1 | 0.993 | 1.04 | 1.28 | 1.08 | 0.955 | 1.19 | 0.83 | 0.809 | 0.723 | 0.28 | 0.319 | 0.251 | 0.245 | 0.297 | 0.942 | 0.779 | 1.02 | 0.664
NCI-H520 | 0.884 | 0.887 | 1.03 | 0.717 | 1.19 | 0.889 | 1.24 | 1.08 | 1.05 | 0.67 | 0.552 | 0.696 | 0.542 | 0.529 | 0.345 | 0.332 | 0.308 | 0.332
NCI-H1734 | 0.728 | 0.69 | 0.707 | 0.624 | 0.954 | 0.855 | 0.932 | 0.931 | 0.939 | 1.1 | 0.961 | 0.949 | 0.9 | 0.955 | 0.584 | 0.613 | 0.562 | 0.352
NCI-H2009 | 1.13 | 1.22 | 1.13 | 1.17 | 1.29 | 1.26 | 1.14 | 1.23 | 1.19 | 1.24 | 1.09 | 0.952 | 1.03 | 1.06 | 0.686 | 0.739 | 0.802 | 0.777
NCI-H1993 | 0.733 | 0.65 | 0.723 | 0.68 | 0.803 | 0.7 | 0.834 | 0.662 | 0.668 | 1.25 | 1.21 | 1.27 | 1.13 | 1.04 | 0.97 | 1.01 | 0.988 | 1.26
